The source of these data is ChEMBL document CHEMBL1201862, “PubChem BioAssay data set” (2004).

Common to all, as to experiment: NCI-60 cell line screen, 48 h
Experiment [1] has as its system 786-0.
Experiment [2] deals with CAKI-1.
Experiment [3] relates to CCRF-CEM.
Experiment [4] relates to HCC 2998.
Experiment [5] relates to HCT-116.
Experiment [6] deals with HT-29.
The test system of experiment [7] is Hs-578T.
The test system of experiment [8] is KM12.
Experiment [9] deals with M14.
The subject of experiment [10] is MDA-MB-231.
The test system of experiment [11] is NCI-H460.
Experiment [12] concerns SF-268.
The test system of experiment [13] is SF-295.
For experiment [14], the system named is SK-MEL-28.
Experiment [15] relates to SNB-75.
The test system of experiment [16] is SR.
Experiment [17] concerns OVCAR-4.
Experiment [18] concerns OVCAR-5.
For experiment [19], the system named is U-251.

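Results reflect a 48-hour exposure of cells in 96-well plates to compound at five concentrations. GI50 marks 50% less growth.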 Calls of active or inactive are those of the source. Rule as the data show it: active = GI50 up to about 1.1 µM and inactive = higher. Bounds are passed on as bounds.

For the molecule `CC1=NC(=Cc2cccc(Cl)c2)C(=O)N1n1c(-c2ccccc2)nc2ccccc2c1=O`, the GI50 was 48.6 µM (inactive) in experiment [1]; 22.8 µM (inactive) in experiment [2]; 35.6 µM (inactive) in [3]; 24.5 µM (inactive) in experiment [4]; 36.5 µM (inactive) in experiment [5]; 36 µM (inactive) in experiment [6]. Also, the GI50 in [7] was 24.5 µM (inactive); in experiment [8], 31.6 µM (inactive); in experiment [9], 31.4 µM (inactive); in experiment [10], 48.5 µM (inactive); in [11], 19.3 µM (inactive); in experiment [12] it was 65.3 µM (inactive). Besides, the GI50 in experiment [13] was 35.7 µM (inactive); in experiment [14], > 10 µM (inactive); in experiment [15], 35.9 µM (inactive); in experiment [16], 25.2 µM (inactive).

`CCN(CC)CCOc1ccc(N2C(=O)c3cccc4cc([N+](=O)[O-])cc(c34)C2=O)cc1`: the GI50 in [1] was 4.76 µM (inactive); in experiment [2] it was 11.5 µM (inactive); in experiment [3], 4.23 µM (inactive); in [4], 11.6 µM (inactive); in [5], 3.88 µM (inactive); in experiment [6], 4.91 µM (inactive). The GI50 in [7] is 14.7 µM (inactive); in experiment [8] it was 12.5 µM (inactive); in experiment [9] it was 12.4 µM (inactive); in experiment [10] it was 18.8 µM (inactive); in experiment [11], 0.524 µM (active); in experiment [17], 16.3 µM (inactive). Moreover, the GI50 is 2.88 µM (inactive) in experiment [18]; 10.9 µM (inactive) in [12]; 6.55 µM (inactive) in experiment [13]; 12.5 µM (inactive) in experiment [14]; 14.5 µM (inactive) in experiment [15]; 0.372 µM (active) in [16]. Also, in experiment [19], the GI50 was 10.8 µM (inactive).

Consider `O=C(O)CCCc1nc2c(n1-c1ccccc1)C(=O)c1ccccc1C2=O`, for which the GI50 in experiment [1] is > 100 µM (inactive); in [2], > 100 µM (inactive); in experiment [3], 40.7 µM (inactive); in experiment [4], 91.8 µM (inactive); in experiment [5] it was 49.1 µM (inactive); in experiment [7], > 100 µM (inactive). The GI50 in experiment [8] is 31.3 µM (inactive); in experiment [9] it was 19.1 µM (inactive); in experiment [10] it was 77.3 µM (inactive); in [11] it was > 100 µM (inactive); in experiment [17] it was 23.9 µM (inactive); in experiment [18] it was > 100 µM (inactive). Besides, the GI50 was 38.1 µM (inactive) in experiment [12]; 60 µM (inactive) in experiment [13]; > 100 µM (inactive) in [14]; 43.5 µM (inactive) in experiment [15]; 77.8 µM (inactive) in experiment [16]; > 100 µM (inactive) in [19].

As to `C=C(C)C(=O)OC1C[C@H](COC(C)=O)C2CC=C(CO)C2C2OC(=O)C(=C)[C@H]12` (stereo partly specified), the GI50 was 27.6 µM (inactive) in experiment [1]; 41.6 µM (inactive) in experiment [2]; 10.4 µM (inactive) in experiment [3]; 47.2 µM (inactive) in experiment [4]; 18.3 µM (inactive) in experiment [5]; 32.3 µM (inactive) in [6]. Moreover, the GI50 in experiment [7] is > 100 µM (inactive); in experiment [8] it was > 100 µM (inactive); in experiment [9], 16.3 µM (inactive); in experiment [10], 51.8 µM (inactive); in experiment [11], > 100 µM (inactive); in experiment [18], > 100 µM (inactive). Besides, the GI50 in experiment [12] is 23.6 µM (inactive); in experiment [13], > 100 µM (inactive); in experiment [14], 32.3 µM (inactive); in [15] it was 69.2 µM (inactive); in experiment [16], 23.2 µM (inactive); in [19] it was > 100 µM (inactive).
